# Data taken from patent publication US20060281763A1, “Carboxamide inhibitors of TGFbeta” (priority 2005, published 2006).
# Target: T1, TGFβ R1 (Homo sapiens, UniProt P36897)
# T1 sequence (P36897 34-503): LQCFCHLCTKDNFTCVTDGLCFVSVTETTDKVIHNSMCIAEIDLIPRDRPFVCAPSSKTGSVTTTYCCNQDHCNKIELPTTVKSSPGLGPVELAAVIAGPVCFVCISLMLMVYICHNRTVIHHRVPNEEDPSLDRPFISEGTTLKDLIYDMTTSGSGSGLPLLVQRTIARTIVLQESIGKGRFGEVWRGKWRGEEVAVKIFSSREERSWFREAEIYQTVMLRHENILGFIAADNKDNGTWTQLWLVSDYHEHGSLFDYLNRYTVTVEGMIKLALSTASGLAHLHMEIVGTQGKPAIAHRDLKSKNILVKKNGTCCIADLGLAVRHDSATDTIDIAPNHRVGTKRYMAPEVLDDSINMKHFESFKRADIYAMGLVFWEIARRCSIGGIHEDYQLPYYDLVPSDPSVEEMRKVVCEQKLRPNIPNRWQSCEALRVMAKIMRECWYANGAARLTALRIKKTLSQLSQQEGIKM
# Assay: TGFβ R1 autophosphorylation protocol (33P-ATP, phosphocellulose filter plate)
# Format: biochemical
# Conditions: 10 uM ATP, 170 nM TGFβ R1, 20 minutes at room temperature, read-out: IC50 for Kinase Inhibition
# Procedure, shortened: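 Incorporation of 33P from γ-33P-ATP (10 uM ATP final) into the kinase itself (170 nM) measured by phosphocellulose capture and scintillation counting. Incubation 20 min at room temperature in 20 mM MOPS pH 7 with […]; final DMSO ≤1%.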
row,Compound,IC50 [nM]
1,"COc1cnc(-c2cc(Cl)ccc2F)nc1Nc1ccncc1C(=O)NCCNC(=O)NC(C)C [Compound 80, 4-[2-(5-Chloro-2-fluoro-phenyl)-5-methoxy-pyrimidin-4-ylamino]-N-[2-(3-isopropyl-ureido)-ethyl]-nicotinamide]",570
2,"COc1cnc(-c2cc(Cl)ccc2F)nc1Nc1ccncc1C(=O)NCCNCC(F)(F)F [Compound 103, 4-[2-(5-Chloro-2-fluoro-phenyl)-5-methoxy-pyrimidin-4-ylamino]-N-[2-(2,2,2-trifluoro-ethylamino)-ethyl]-nicotinamide]",130
3,"COc1cnc(-c2cc(Cl)ccc2F)nc1Nc1ccncc1C(=O)NC1CCN(CCC2O[C@H](CO)[C@@H](O)[C@H](O)[C@@H]2O)CC1 (stereo partly shown) [Compound 152, 4-[2-(5-Chloro-2-fluoro-phenyl)-5-methoxy-pyrimidin-4-ylamino]-N-{1-[2-(3,4,5-trihydroxy-6-hydroxymethyl-tetrahydro-pyran-2-yl)-ethyl]-piperidin-4-yl}-nicotinamide]",28
4,"COc1cnc(-c2cc(Cl)ccc2F)nc1Nc1ccncc1C(=O)NCCCn1ccnc1 [Compound 10, 4-[2-(5-Chloro-2-fluoro-phenyl)-5-methoxy-pyrimidin-4-ylamino]-N-(3-inidazol-1-yl-propyl)-nicotinamide]",60
5,"COc1cnc(-c2cc(Cl)ccc2F)nc1Nc1ccncc1C(=O)NCCCN [Compound 100, N-(3-Amino-propyl)-4-[2-(5-chloro-2-fluoro-phenyl)-5-methoxy-pyrimidin-4-ylamino]-nicotinamide]",30

# Same assay, conditions: 10 uM ATP, 170 nM TGFβ R1, room temperature 20 minutes, read-out: IC50 for Kinase Inhibition
row,Compound,IC50 [nM]
1,"CC(C)c1cnc(-c2cc(Cl)ccc2F)nc1Nc1ccncc1C(=O)N1CC[C@H](N)C1 [Compound 209, (3-Amino-pyrrolidin-1-yl)-{4-[2-(5-chloro-2-fluoro-phenyl)-5-isopropyl-pyrimidin-4-ylamino]-pyridin-3-yl}-methanone]",68
2,"O=C(c1cnccc1Nc1nc(-c2cc(Cl)ccc2F)ncc1C1CCCC1)N1CCC[C@H](O)C1 [Compound 226, {4-[2-(5-Chloro-2-fluoro-phenyl)-5-cyclopentyl-pyrimidin-4-ylamino]-pyridin-3-yl}-(3-hydroxy-piperidin-1-yl)-methanone]",2470
3,"COc1cnc(-c2cc(Cl)ccc2F)nc1Nc1ccncc1C(=O)N1CCC[C@H](O)C1 [Compound 221, {4-[2-(5-Chloro-2-fluoro-phenyl)-5-methoxy-pyrimidin-4-ylamino]-pyridin-3-yl}-(3-hydroxy-piperidin-1-yl)-methanone]",1460
4,"CC(C)c1cnc(-c2cc(Cl)ccc2F)nc1Nc1ccncc1C(=O)N1CCC[C@@H](O)C1 [Compound 217, {4-[2-(5-Chloro-2-fluoro-phenyl)-5-isopropyl-pyrimidin-4-ylamino]-pyridin-3-yl}-(3-hydroxy-piperidin-1-yl)-methanone]",1210
5,"CC(C)c1cnc(-c2cc(Cl)ccc2F)nc1Nc1ccncc1C(=O)NC1C[C@@H]1CO (stereo in doubt) [Compound 215, 4-[2-(5-Chloro-2-fluoro-phenyl)-5-isopropyl-pyrimidin-4-ylamino]-N-(2-hydroxymethyl-cyclopropyl)-nicotinamide]",5

# Continued, values first:
row,IC50 [nM],Compound
1,7740,"COc1cnc(-c2cc(Cl)ccc2F)nc1Nc1ccncc1C(=O)C(=O)N(C)C [Compound 239, 2-{4-[2-(5-Chloro-2-fluoro-phenyl)-5-methoxy-pyrimidin-4-ylamino]-pyridin-3-yl]-N,N-dimethyl-2-oxo-acetamide]"
2,24,"COc1cnc(-c2cc(Cl)ccc2F)nc1Nc1ccncc1C(=O)NCC(C)=O [Compound 168, 4-[2-(5-Chloro-2-fluoro-phenyl)-5-methoxy-pyrimidin-4-ylamino]-N-(2-oxo-propyl)-nicotinamide]"
3,3080,"CCCN(CCC)C(=O)C(=O)c1cnccc1Nc1nc(-c2cc(Cl)ccc2F)ncc1OC [Compound 240, 2-{4-[2-(5-Chloro-2-fluoro-phenyl)-5-methoxy-pyrimidin-4-ylamino]-pyridin-3-yl}-2-oxo-N,N-dipropyl-acetamide]"
